Measurements: patent US20250120975A1, “INTEGRIN INHIBITORS FOR TREATMENT OF PRIMARY SCLEROSING CHOLANGITIS” (Pliant Therapeutics, Inc., priority 2023, published 2025)
“Also recorded” adds a separate entry of the source.

What was measured:
[1] = system: BALB/c.Mdr2−/− mouse model of biliary fibrosis; assay: Liver and kidney biochemistries in serum (ALT, ALP, total bilirubin); assay type: in vivo; conditions: 6 weeks
From the text: The tissue source is BALBc.Mdr2-/−male mice that were 6 weeks old. The Mdr2(abcb4)−/− mouse model of sclerosing cholangitis has been previously described and is a model of spontaneously progressive hepatic fibrosis in mice with deletion of the biliary phospholipid flippase on fibrosis-susceptible background (Mdr2(abcb4)^−/−. BALB/c mouse). See N. Ikenaga, et al. (2015) Am J Pathol. 185 (2): 325-334, the entire contents of which are hereby incorporated by reference in their entirety.
(S)-4-((2-methoxyethyl)(4-(5,6,7,8-tetrahydro-1,8-naphthyridin-2-yl)butyl)amino)-2-(quinazolin-4-ylamino)butanoic acid (or PBS) was dosed once daily orally at 100 mg/kg, 300 mg/kg or 1000 mg/kg (see Table B-2) starting at 6 weeks after birth of the subject and continuing for 6 weeks. All animals were euthanized and necropsied at the end of week 12.
Determination of ALT, ALP, and total bilirubin was performed as conventional liver and kidney function tests at the clinical biochemistry core (BIDMC).

[2] = system: subjects with PSC and suspected liver fibrosis; assay: Phase 2a INTEGRIS-PSC: Itch Numerical Rating Scale (NRS); assay type: in vivo, human
Procedure: In one embodiment is provided a method of reducing itch or pruritus (chronic itching). Itch can be quantified on a 0-10 scale using the Peak Pruritus Numerical Rating Scale (NRS), where 0 is “no itch” and 10 is “worst imaginable itch” over the past 24 hours (Yosipovitch et al., British Journal of Dermatology (2019) 181:761-769, incorporated by reference herein in its entirety). In embodiments, a method of reducing pruritus in a human who has fibrotic liver disease is provided, comprising administering to the human(S)-4-((2-methoxyethyl)(4-(5,6,7,8-tetrahydro-1,8-naphthyridin-2-yl)butyl)amino)-2-(quinazolin-4-ylamino)butanoic acid, or a pharmaceutically acceptable salt thereof. In embodiments, a method of reducing (e.g., ameliorating) pruritus in a human who has fibrotic liver disease (e.g., primary sclerosing cholangitis) is provided, comprising administering to the human(S)-4-((2-methoxyethyl)(4-(5,6,7,8-tetrahydro-1,8-naphthyridin-2-yl)butyl)amino)-2-(quinazolin-4-ylamino)butanoic acid, or a pharmaceutically acceptable salt thereof, as compared to a human who has not been administered(S)-4-((2-methoxyethyl)(4-(5,6,7,8-tetrahydro-1,8-naphthyridin-2-yl)butyl)amino)-2-(quinazolin-4-ylamino)butanoic acid, or a pharmaceutically acceptable salt thereof. […] In further embodiments, pruritus is reduced as measured by a change in itch numerical rating scale from between about 0.8 and about-0.2 at about 12 weeks following a first administration of (S)-4-((2-methoxyethyl)(4-(5,6,7,8-tetrahydro-1,8-naphthyridin-2-yl)butyl)amino)-2-(quinazolin-4-ylamino)butanoic acid, or a pharmaceutically acceptable salt thereof to the human. […]

## COCCN(CCCCc1ccc2c(n1)NCCC2)CC[C@H](Nc1ncnc2ccccc12)C(=O)O [Bexotegrast, (S)-4-((2-methoxyethyl)(4-(5,6,7,8-tetrahydro-1,8-naphthyridin-2-yl)butyl)amino)-2-(quinazolin-4-ylamino)butanoic acid]
[1]; 1000 mg/kg, vs vehicle
  serum alkaline phosphatase levels: significantly decreased
[1]; 100, 300, 1000 mg/kg
  serum ALT levels: did not change
  serum total bilirubin levels: dose dependent trend down
[2]; 320 mg, over 24 weeks, relative to an increase on placebo, Example B-5
  Itch Numerical Rating Scale (NRS) score: did not increase; also recorded: stable score
[2]; 40, 80, 160 mg, Week 12, statistical significance for the 160 mg dose, Example B-3
  itch (NRS) relative to placebo: dose dependent reductions
[2]; 40-320 mg, Week 12, statistical significance for the 160 mg, 320 mg groups, Example B-4
  itch (NRS) relative to the placebo: dose-dependent reductions
